Assay results from patent publication US9593305B2, “Differentiation of pluripotent stem cells” (Janssen Biotech, Inc., priority 2008, dated 2017).

Key:
[1] = system: CDK, GSK3, and/or TRK signaling pathways; assay: Primary selectivity of the proprietary small molecules (Table 16); settings: as listed in Table 17
Procedure: A subset of 14 proprietary small molecules, known to have specificity for the CDK, GSK3, and/or TRK signaling pathways were evaluated for their potential to differentiate human embryonic stem cells to cells expressing markers characteristic of the definitive endoderm lineage.

[2] = system: H1 human embryonic stem cells; assay: Screen of CDK, GSK3 and TRK inhibitors with or without GDF-8, SOX17 and cell number (Example 20, Table 17); assay type: cell-based; settings: Plate 1; for Cell Number, % of positive control / Sox17 Expression, % of positive control: positive control = Activin A/Wnt3a
Procedure: Briefly, clusters of H1 human embryonic stem cells were grown on reduced growth factor Matrigel™ (Invitrogen; Cat #356231) coated tissue culture plastic. Cells were passaged using collagenase (Invitrogen; Cat #17104-019) treatment and gentle scraping, washed to remove residual enzyme, and plated with even dispersal at a ratio of 1:1 (surface area) on reduced growth factor […]™ (BD Biosciences; Cat #356231)-coated 96-well black plates (Packard ViewPlates; PerkinElmer; Cat #6005182) using volumes of 100 μl/well. Cells were allowed to attach and then recover log phase growth over a 1 to 3 day time period, feeding daily with MEF conditioned medium supplemented with 8 ng/ml bFGF (R&D Systems; Cat #233-FB). Plates were maintained at 37° C., 5% CO2 in a humidified box throughout the duration of assay.
Screening was conducted using the compounds described in Table 16. […] Compounds were made available as 5 mM stocks in 96-well plate format, solubilized in 100% DMSO (Sigma; Cat #D2650) and stored at −80° C. The library compounds were further diluted to an intermediate concentration of 0.2 mM in 50 mM HEPES (Invitrogen; Cat #15630-080), 20% DMSO and stored at 4° C. Test conditions were performed in triplicate, feeding on alternating days over a four-day assay period. Assay was initiated by aspirating culture medium from each well followed by three washes in PBS (Invitrogen; Cat #14190) to remove residual growth factors. On the first day of assay, test volumes of 200 μl per well were added to each well using DMEM:F12 base medium (Invitrogen; Cat #11330-032) supplemented with 0.5% FCS (HyClone; Cat #SH30070.03) and 100 ng/ml GDF-8 (R&D Systems, Cat #788-G8) plus 2.5 μM compound. A parallel set of test samples were treated in an identical manner but omitting GDF-8 from the medium. On the third day of assay, test volumes of 100 μper well were added to each well using DMEM:F12 base medium supplemented with 2% FCS plus 100 ng/ml GDF-8 (R&D Systems, Cat #788-G8). […] Positive control samples contained the same base medium supplemented with FCS and 100 ng/ml recombinant human activin A (PeproTech; Cat #120-14) throughout the four day assay along with Wnt3a (20 ng/ml) addition on days 1 and 2. Negative control samples contained DMEM:F12 base medium supplemented with FCS.
At the conclusion of four-days of culture, assay plates were washed twice with PBS (Invitrogen; Cat #14190), fixed with 4% paraformaldehyde (Alexis Biochemical; Cat #ALX-350-011) at room temperature for 20 minutes, then washed three times with PBS and permeabilized with 0.5% Triton X-100 (Sigma; Cat #T8760-2) for 20 minutes at room temperature. Cells were washed again three times with PBS and blocked with 4% chicken serum (Invitrogen; Cat #16110082) in PBS for 30 minutes at room temperature. Primary antibody (goat anti-human SOX17; R&D Systems; Cat #AF1924) was diluted 1:100 in 4% chicken serum and added to each well for one hour at room temperature. Alexa Fluor 488 conjugated secondary antibody (chicken anti-goat IgG; Molecular Probes; Cat #AZ1467) was diluted 1:200 in PBS and added to each sample well after washing three times with PBS. To counterstain nuclei, 4 μg/ml Hoechst 33342 (Invitrogen; Cat #H3570) was added for ten minutes at room temperature. Plates were washed once with PBS and left in 100 μl/well PBS for imaging.
Imaging was performed using an IN Cell Analyzer 1000 (GE Healthcare) utilizing the 51008bs dichroic for cells stained with Hoechst 33342 and Alexa Fluor 488. Exposure times were optimized from positive control wells and from untreated negative control wells stained with secondary antibody alone. Images from 15 fields per well were acquired to compensate for any cell loss during the bioassay and subsequent staining procedures. Measurements for total cell number and total SOX17 intensity were obtained from each well using IN Cell Developer Toolbox 1.7 (GE Healthcare) software. […]

[3] = compound in combination with GDF8

SMILES | Compound Selectivity [1] | Cell Number, Average Total Cell Number ([2]; compound alone, No GDF8) | Sox17 Expression, Average Total Intensity ([2]; compound alone, No GDF8) | Cell Number, % of positive control ([2]; compound alone, No GDF8) | Sox17 Expression, % of positive control ([2]; compound alone, No GDF8) | Cell Number, Average Total Cell Number [2, 3] | Sox17 Expression, Average Total Intensity [2, 3] | Cell Number, % of positive control [2, 3] | Sox17 Expression, % of positive control [2, 3] | Compound Selectivity ([1]; GDF8 treatment) | Compound Selectivity ([1]; No GDF8 treatment)
N#Cc1cnc2nc1Nc1cccc(c1)OCCNC(=O)c1cccc(c1)N2 [Compound 41, 18-Oxo-14-oxa-2,4,8,17,25-pentaazatetracyclo[17.3.1.1˜3,7˜0.1˜9,13˜]pentacosa-1(23), 3(25), 4,6,9(24), 10,12,19,21-nonaene-6-carbonitrile] | Selective for GSK | 9995 | 5.9E+04 | 69.0 % of positive control | 0.0 % of positive control | 4455 | 3.4E+07 | 30.8 % of positive control | 14.8 % of positive control | – | –
CN1CCCc2cccc(c2)-c2nnc([nH]2)Nc2cccc(c2)CN2CCN(CC2)C(=O)C1 [Compound 43, 21-Methyl-1,8,10,11,21,24,30-heptaazapentacyclo[22.2.2.1˜3,7˜0.1˜9,12˜0.1˜13,17˜]hentriaconta-3(31). 4,6,9,11,13(29), 14,16-octaen-23-one] | Selective for Trk | 8610 | −2.1E+05 | 59.5 % of positive control | −0.1 % of positive control | 6682 | 5.4E+07 | 46.2 % of positive control | 23.4 % of positive control | – | –
CN1CCC(NC(=O)c2ccc(Nc3nccc(N4CCN(C)c5ccccc54)n3)cc2)CC1 [Compound 11, 4-{[4-(4-Methyl-3,4-dihydroquinoxalin-1(2H)-yl)pyrimidin-2-yl]amino}-N-(1-methylpiperidin-4-yl)benzamide] | Selective for CDK | 565 | −1.1E+06 | 3.9 % of positive control | −0.5 % of positive control | 210 | −4.9E+05 | 1.4 % of positive control | −0.2 % of positive control | – | –
O=C1COc2cccc(c2)Nc2nccc(n2)Nc2cccc(c2)OCCCN1 [Compound 42, 14,21-Dioxa-2,4,8,18,28-pentaazatetracyclo[20.3.1.1˜3,7˜0.1˜9,13˜]octacosa-1(26), 3(28), 4,6,9(27), 10,12,22,24-nonaen-19-one] | Selective for CDK | 8700 | −2.4E+05 | 60.1 % of positive control | −0.1 % of positive control | 5686 | 4.9E+07 | 39.3 % of positive control | 21.2 % of positive control | – | –
O=C(O)c1ccc(Nc2ncc3nnn(-c4cccc(F)c4)c3n2)cc1 [Compound 6] | Selective for GSK | 14827 | −1.8E+05 | 102.4 % of positive control | −0.1 % of positive control | 5118 | 5.8E+07 | 35.4 % of positive control | 25.2 % of positive control | – | –
O=C(O)c1cc(Nc2ncc3nnn(-c4ccccc4)c3n2)ccc1F [Compound 7, 2-Fluoro-5-[(3-phenyl-3H-[1,2,3]triazolo[4,5-d]pyrimidin-5-yl)amino]benzoic acid] | – | 3 | −1.4E+06 | 0.0 % of positive control | −0.6 % of positive control | 5296 | 7.0E+07 | 36.6 % of positive control | 30.4 % of positive control | Selective for GSK | Selective for CDK
Nc1nccc(-c2cccc(Nc3ncc4nnn(-c5cccc(CNC(=O)C6CC6)c5)c4n3)c2)n1 [Compound 8, N-{[3-(5-{[3-(2-Aminopyrimidin-4-yl)phenyl]amino}-3H-1-[1,2,3]triazolo[4,5-d]pyrimidin-3-yl)phenyl]methyl}cyclopropanecarboxamide] | Selective for GSK | 13235 | 3.8E+05 | 91.4 % of positive control | 0.2 % of positive control | 5018 | 4.7E+07 | 34.7 % of positive control | 20.4 % of positive control | – | –
CN(C)CCNC(=O)c1ccc(-c2cnc3ccc(NCc4cccc(Cl)c4)nn23)cc1 [Compound 57, 4-(6-{[(3-Chlorophenyl)methyl]amino}imidazo[1,2-b]pyridazin-3-yl)-N-[2-(dimethylamino)ethyl]benzamide] | Selective for Trk | 1222 | −7.1E+05 | 8.4 % of positive control | −0.3 % of positive control | 2110 | 1.1E+07 | 14.6 % of positive control | 4.8 % of positive control | – | –
COCCCNS(=O)(=O)c1ccc(Nc2ncc3cnn(C4CCCCC4)c3n2)cc1 [Compound 9, 4-[(1-Cyclohexyl-1H-pyrazolo[3,4-d]pyrimidin-6-yl)amino]-N-[3-(methyloxy)propyl]benzenesulfonamide] | Selective for CDK | 7156 | −4.2E+04 | 49.4 % of positive control | 0.0 % of positive control | 4816 | 4.5E+07 | 33.3 % of positive control | 19.4 % of positive control | – | –
COc1ccc(Nc2cc(Nc3cc(Cl)ccc3O)ncn2)cc1CCl [Compound 10, 4-Chloro-2-[(6-{[3-(chloromethyl)-4-methoxyphenyl]amino}pyrimidin-4-yl)amino]phenol] | Selective for CDK | 7011 | −6.6E+05 | 48.4 % of positive control | −0.3 % of positive control | 4627 | 6.6E+07 | 32.0 % of positive control | 28.6 % of positive control | – | –
